Experiments:
[1] = Solubility of A1 in pure solvents
[2] = system: 3T3-EGFR cells; assay: EGF-driven DNA replication (BrdU incorporation); format: cell-based; conditions: Mus musculus, 20 hours
Protocol: In vitro functional studies. […] Cell lines examined in receptor phosphorylation ELISA were 3T3-EGFR, 3T3-EGFR/Her-2, 3T3-PDGF-bR, 3T3-IGF1R, and 3T3-IR. For analysis of DNA replication (measured as incorporation of BrdU) and cell cycle progression, 3T3-EGFR and 3T3-PDGF-bR cell lines were used. Cell growth studies were carried out on A431 (EGF-R+), BT474 (Her-2+), and C6 (PDGF-bR+) cell lines.

COc1cc2ncnc(Nc3cccc(Br)c3)c2cc1OC [A1, 4-(3-Bromophenylamino)-6,7-dimethoxyquinazoline]
Not Soluble at ([1]; Benzyl Alcohol, NF): 4.77 % w/w | Soluble at ([1]; Benzyl Alcohol, NF): 3.60 % w/w | Not Soluble at ([1]; Benzyl Benzoate, USP (printed Betizyl Berizoate)): 0.85 % w/w | Not Soluble at ([1]; Caprylic/Capric Triglyceride (Miglyol 812)): 0.84 % w/w | Not Soluble at ([1]; Dehydrated Alcohol, USP): 0.98 % w/w | Soluble at ([1]; Dehydrated Alcohol, USP): 0.76 % w/w | compatibility / solubility ([1]; Diethyl Sebacate): not compatible (yellow) | Not Soluble at ([1]; Diisopropyl Adipate): 0.66 % w/w | Not Soluble at ([1]; Dimethyl isosorbide): 0.97 % w/w | Not Soluble at ([1]; Ethoxydiglycol (Transcutol)): 3.74 % w/w | Soluble at ([1]; Ethoxydiglycol (Transcutol)): 2.41 % w/w | Not Soluble at ([1]; Finsolve TN (Finetex)): 1.27 % w/w | Not Soluble at ([1]; Hexylene Glycol): 2.05 % w/w | Soluble at ([1]; Hexylene Glycol): 0.98 % w/w | Not Soluble at ([1]; Isopropyl Alcohol, 99%): 1.25 % w/w | Not Soluble at ([1]; Isotearyl Alcohol): 0.99 % w/w | Soluble at ([1]; Laureth 4): 4.10 % w/w | Not Soluble at ([1]; Octyldodecanol, NF): 0.68 % w/w | Not Soluble at ([1]; Oleic Acid, NF): 1.00 % w/w | Not Soluble at ([1]; Polyethylene Glycol 300, USP): 2.10 % w/w | Soluble at ([1]; Polyethylene Glycol 300, USP): 1.00 % w/w | Not Soluble at ([1]; Polyethylene Glycol 400, USP): 2.44 % w/w | Soluble at ([1]; Polyethylene Glycol 400, USP): 1.76 % w/w | Not Soluble at ([1]; Polysorbate 20, NF): 0.99 % w/w | Not Soluble at ([1]; Propylene Carbonate, NF): 1.46 % w/w | Soluble at ([1]; Propylene Carbonate, NF): 0.98 % w/w | Not Soluble at ([1]; Propylene Glycol, USP): 0.59 % w/w | Not Soluble at ([1]; Triacetin USP): 0.96 % w/w | solubility in nonirritant solvents (in words) ([1]; among anticancer compounds): relative high solubility in nonirritant solvents | IC50 [2]: 30 nM

From US6004967A, “Psoriasis treatment with quinazoline compounds” (priority 1997, dated 1999)
